Measurements reported in US12600696B2 (XENIOPRO GMBH, priority 2017, dated 2026).

Columns and labels:
Format in all cases: cell-based
[1] = test system: CAL-27 cells (human tongue squamous cell carcinoma cells); experiment: alamarBlue proliferation assay with CAL-27 cells; conditions: Homo sapiens, 120 h, 20 μM, 5 days, relative to DMSO baseline level of 1.0, read-out: AVEw, weighted arithmetic mean of normalized fluorescence intensity values (Activity Range), CAL-27 proliferation
In short: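 CAL-27 cells seeded at 2000 per well, exposed to compound in 0.1% DMSO for 5 days, then alamarBlue fluorescence (ex 560/em 590 nm). Values normalized to DMSO wells (1.0) as weighted means with combined standard deviation; growth inhibition judged at 20 μM reference concentration.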

[2] = test system: BHY cells (human oral squamous cell carcinoma cells); experiment: alamarBlue proliferation assay with BHY cells; conditions: 72 h, 3 days treatment, single assay (preliminary), relative to DMSO basis level 1.0, read-out: equally weighted arithmetic mean (AVE) of six normalized fluorescence intensity values, activity range (RES: AVEw)
Protocol: Compounds were tested on BHY cells using the alamarBlue® proliferation assay in analogy to the above described method with seeding the cells at an initial number of 4000 cells per 96-well and a duration of treatment with compounds for 3 days.
BHY cells were cultivated according to the protocol of the provider (but at 5% instead of 10% CO2) in DMEM medium (Fisherscientific, #11584456) containing 10% fetal bovine serum (Fisherscientific, #15517589).
A compound is considered as a growth inhibitor of BHY cells, if—at a reference concentration of 40 μM—the equally weighted arithmetic mean (AVE) of the six normalized fluorescence intensity values after addition of the corresponding standard deviation amounts to 0.9 or lower, in particular to 0.8 or lower, 0.7 or lower, 0.6 or lower, 0.4 or lower, and 0.2 or lower, relative to the overall basis level of 1.0. The overall basis level was calculated as the weighted arithmetic mean (AVEw) of all normalized values from the DMSO control measurements. The corresponding combined standard deviation for the DMSO values amounts to less than 1·10^−2. The corresponding standard deviations for the tested compounds were calculated including the Gauß′ error propagation associated with the performed calculation for the normalization. The weighted arithmetic mean (AVEw) and the combined standard deviation for RES was calculated in analogy to DMSO. Outlier analyses were performed as described above.

[3] = test system: HL-60 cells (human acute myeloid leukemia cells); experiment: alamarBlue proliferation assay with HL-60 cells; conditions: 120 h, 5 days, relative to DMSO baseline level of 1.0, read-out: AVEw, weighted arithmetic mean of normalized fluorescence intensity values (Activity Range), HL-60 proliferation
In short: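 HL-60 cells (1000/well, RPMI 1640 + 10% FBS) exposed to compound in 0.1% DMSO for 5 days, then alamarBlue fluorescence read (ex 560/em 590 nm). Signals normalized to six DMSO wells per plate (baseline 1.0); outliers removed by Peirce/Chauvenet; weighted mean with combined SD; inhibitor criterion judged at 20 μM reference concentration.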

[4] = test system: HPEKp cells (human epidermal keratinocyte progenitors, pooled); experiment: alamarBlue proliferation assay with HPEKp cells; conditions: 120 h, relative to DMSO basis level 1.0, read-out: weighted arithmetic mean (AVEw) of normalized fluorescence intensity, activity range
Protocol: (§1) The antiproliferative activities of compounds falling under formula I, formula II, formula III, formula IV and formula V were investigated on cells or cell lines originating from a disorder of the myeloid cell compartment, the neuroendocrine system, the cervix, and the mucosal epithelium, as well as from the skin epithelium. To this end, HL-60 cells, TT cells, HeLa cells, CAL-27 cells and human primary epidermal keratinocytes (HPEK) were seeded into 96-well plates suitable for fluorescence assays (CORNING #3598) at following initial cell numbers: 1000 cells per well for HL-60; 9000 cells per well for TT; 2000 cells per well for HeLa, 2000 cells per well for CAL-27, 2000 cells per well for HPEK. The cells were treated with compounds at indicated final concentrations (diluted from the 1000× stock-solutions in DMSO to a final DMSO concentration of 0.1% v/v) or with the empty carrier DMSO at 0.1% v/v as control for 5 days. At day 5 after starting the treatments the cells were subjected to the alamarBlue® Proliferation Assay (Bio-Rad Serotec GmbH, BUF012B) according to the protocol of the manufacturer. The readout was taken with a multi-well plate-reader in the fluorescence mode with applying a filter for excitation at 560 nm (band width 10 nm) and for emission at 590 nm (band width 10 nm). Resveratrol (RES) treatment was included as control for growth inhibition.
(§2) The assays were performed in duplicate or more replicates of independent single experiments each containing a six-fold replicate for every condition. For every individual plate, the measured fluorescence intensity values of the conditions with compound treatment were normalized against the corresponding equally weighted arithmetic mean of the fluorescence intensity values of the six DMSO treated control wells in order to obtain the relative values to a baseline level of 1.0. The statistical calculations were performed in analogy to the luciferase assay as described above. To this end, two independent outlier analyses were performed according to the methods by Peirce and Chauvenet (Ross, Journal of Engineering Technology 2003, 1-12). Outliers confirmed by at least one of the methods were excluded from the calculations but not more than one value out of six per compound within a single experiment. The weighted arithmetic mean AVEw for each compound was calculated from the normalized values over all independent replicates of the single experiments comprising the six replicates each. The corresponding standard deviation for the weighted arithmetic mean was calculated according to the method described by Bronstein et al. (Bronstein, Semendjajew, Musiol, Mühlig, Taschenbuch der Mathematik, 5th edition 2001 (German), publisher: Verlag Harri Deutsch, Frankfurt am Main and Thun) and was combined with the Gauß′ error propagation associated with the performed calculation for the normalization. The resulting standard deviation is herein referred to as “combined standard deviation”.
HPEKp cells were cultivated according to the protocol of the provider in CnT-Prime epithelial culture medium (CELLnTEC, #CnT-PR, a fully defined, low calcium formulation, completely free of animal or human-derived components) without addition of further components.
(§3) A compound is considered as a growth inhibitor of HPEKp cells, if—at a reference concentration of 10 μM—the weighted arithmetic mean of the normalized fluorescence intensity values after addition of the corresponding combined standard deviation amounts to 0.9 or lower, in particular to 0.8 or lower, 0.7 or lower, 0.6 or lower, 0.4 or lower, and 0.2 or lower, relative to the overall basis level of 1.0. The overall basis level was calculated as the weighted arithmetic mean of all normalized values from the DMSO control measurements in analogy to the calculations performed for the test-compounds. The corresponding combined standard deviation for the DMSO values amounts to less than 1·10^−2.

[5] = test system: TT cells (human medullary thyroid carcinoma cells); experiment: alamarBlue proliferation assay with TT cells; conditions: Homo sapiens, 120 h, 40 μM, relative to DMSO basis level 1.0, read-out: weighted arithmetic mean (AVEw) of normalized fluorescence intensity, activity range
Protocol: as §1, §2
TT cells were cultivated according to the protocol of the provider in F-12K medium (Fisherscientific, #11580556, or ATCC, #ATCC-30-2004) containing 10% fetal bovine serum (Fisherscientific, #15517589).
as §3, with “of TT” for “of HPEKp”, “of 40” for “of 10”

| Compound | activity at 20 µM [1] | activity at 40 µM [2] | activity at 20 µM [3] | activity at 10 µM [4] | activity at 40 µM [5] |
| --- | --- | --- | --- | --- | --- |
| CCC(C)(C)c1ccc(Oc2ncc(C(=O)NO)cc2F)cc1 [Compound 633] | 0 to 20% | 20 to 40% | 0 to 20% | – | – |
| O=C(NO)c1ccc(Oc2ccc(C3CCCCC3)cc2)c(F)c1 [Compound 540, 4-(4-cyclohexylphenoxy)-3-fluoro-N-hydroxybenzamide] | 0 to 20% | 0 to 20% | 0 to 20% | 20 to 40% | 20 to 40% |
